The results in this text go back to patent EP4549446A1 (priority 2023, dated 2025).

Structures are written as SMILES.

One data set concerns Nrf2. The data set is described as follows: Nrf2-ARE induction, luciferase assay in AREc32 cells. The class given is cell-based. The note with it: CD: concentration required to double the specific activity of the luciferase gene, 24 h treatment.
A short description of data set [1]: SFNA/αCD association constant by 1H NMR titration in D2O. The class given is physicochemical. Conditions: 298 K, SFNA 2 mM against increasing α-cyclodextrin. On the procedure:
The preparation of inclusion complexes was carried out by a physical mixture in water between α-cyclodextrin (host) and the sulforaphane analogue (guest; SFNA). The confirmation of complex formation, its stoichiometry, association constant (Kas), and degree of degradation were determined using ^1H NMR spectroscopy.
Determination of the SFNA/αCD association constant. The determination of association constants (Kas, M^-1) for the SFNA/αCD complex was performed through ^1H NMR titration experiments in D2O. The association constants at 298 K were experimentally determined by measuring the changes in chemical shift (Δδ, ppm) of the ^1H NMR signals using fixed solutions of the analogues against increasing concentrations of α-cyclodextrin. In a typical titration experiment, a 2 mM solution of the SFN analogue in D2O was prepared, and a 500 µL aliquot was transferred to the NMR tube, and the initial spectrum was recorded. Furthermore, a solution of a mixture (SFNA at 2 mM/ αCD at 16.11 mM) was prepared and added in 10 µL aliquots to the NMR tube, keeping the analogue concentration constant. The added amounts of α-cyclodextrin were increased until complete complexation of the analogue, and ^1H NMR spectra were recorded after each addition. The mathematical treatment of the curves of chemical shift variations of the analogue proton signals (Δδ) against increasing α-cyclodextrin concentrations using an iterative least-squares fitting procedure allowed for the determination of the Kas values for the analogues (Table 1).

A further data set relates to AML cell lines. The class given is cell-based, human.
Data set [2] deals with normal cell subpopulations from healthy donors. Kind of data set: Ex vivo cell viability by flow cytometry on normal cells. The class given is cell-based, human. The note with it: normal cell subpopulations from healthy donors including hematopoietic precursor cells, 18 h. On the procedure:
Primary human cells from healthy donors were used in ex vivo assays. The mononuclear fraction was extracted with Ficoll-Paque by density gradient centrifugation and subsequently differentiated from the other cell populations by flow cytometry using an appropriate combination of antibodies: anti-human CD45-Pacific Blue, CD34-FITC, CD19-APC-H7 (BD Biosciences, San Jose, CA) and CD3-FITC (Invitrogen).
Cell viability and cell lysis were also assessed by annexin V/7-AAD using flow cytometry. Donor cells were analysed using 7-AAD a combination of monoclonal antibodies (anti-CD45-Pacific Blue, anti-CD34-FITC, anti-CD3-FITC, anti-CD19-APC-H7). The cells were acquired with the FACSCanto II flow cytometer (BD Biosciences) and analysed with the Infinicyt™ software (Cytognos, Spain).
(In flow cytometry, cells or beads pass a laser one at a time.)

As to `C[S+]([O-])CCCCN=C=S` (stereo not shown) [SFN-1, sulforaphane, reference compound], the EC (2-fold) in the data set with Nrf2 (read-out: CD ± SEM) was determined as 0.44 ± 0.28 µM.
With `CCOP(=O)(CCCCN=C=S)OCC` [SFN-14, Diethyl (4-isothiocyanatobutyl)phosphonate], the Kas in data set [1] is recorded as 135,95 M^-1. Also, in the data set with AML cell lines, the “proapoptotic effect on AML cell lines” value was “partially selective proapoptotic effect”.
`CC(C)OP(=O)(OCCCN=C=S)OC(C)C` [SFN-15, Diisopropyl (3-isothiocyanatopropyl) phosphate]: the Kas in data set [1] is recorded as 101,95 M^-1. Also, the “CD ± SEM” value in the data set on Nrf2 was found to be 0.52 ± 0.08 µM.
In the case of `O=P(OCCCN=C=S)(Oc1ccccc1)Oc1ccccc1` [SFN-16, Diphenyl 3-isothiocyanatopropyl phosphate], the “CD ± SEM” value in the data set with Nrf2 is given as 1.55 ± 0.45 µM.
In the case of `CCOP(=O)(OCC)OCCCN=C=S` [SFN-10, Diethyl (3-isothiocyanatopropyl) phosphate], in data set [1], the Kas is 34,87 M^-1. In the data set with AML cell lines, the “proapoptotic effect on AML cell lines” value is “partially selective proapoptotic effect”. In addition, the “viability of normal healthy cells” value in data set [2] is on record as “not affected”. In addition, the “CD ± SEM” value with Nrf2 is recorded as 0.56 ± 0.07 µM.
